Test results: patent publication US7671056B2, “Piperazine-piperidine antagonists and agonists of the 5-HT1A receptor” (Wyeth LLC, priority 2005, dated 2010)

Legend:
male Sprague-Dawley rats = assay: In vivo microdialysis of frontal cortex 5-HT (enhancement of SSRI activity); parameters: species or system rat; conditions: acute fluoxetine alone, 30 mg/kg s.c.
Description: The ability of the compounds of this invention to reduce time for onset of action of the representative SSRI fluoxetine was assessed using in vivo microdialysis. Using 2-3% halothane anesthesia (Fluothane; Zeneca, Cheshire, UK), male Sprague-Dawley rats (280-350 g; Charles River, Wilmington, Mass.) were secured in a stereotaxic frame with ear and incisor bars (David Kopf, Tujunga, Calif.) while a microdialysis guide cannula (CMA/12, CMA Microdialysis, Sweden) was directed above the dorsal lateral frontal cortex (A/P+3.2 mm, M/L−3.5 mm, D/L−1.3 mm). Coordinates were taken with a flat skull using the rat brain atlas of Paxinos and Watson (1986). […]
For in vivo neurochemical experiments, a microdialysis probe (CMA/12; active membrane length 2 mm; OD 0.5 mm; 20 kD cut-off) was pre-washed with artificial CSF (aCSF; 125 mM NaCl, 3 mM KCl, 0.75 mM MgSO4 and 1.2 mM CaCl2, pH 7.4) according to the manufacturers specifications. […] Subsequent microdialysis samples were collected for 3 h post-injection and analyzed for 5-HT content by high performance liquid chromatography (HPLC). […] Subsequent sample values were expressed as a percent change from this preinjection baseline value (or % change from baseline). Neurochemical data, excluding preinjection values, were analyzed by a two-way analysis of variance (ANOVA) with repeated measures (time). […]

[1] = tested on: sexually experienced male rats (Sprague-Dawley rats); assay: Animal model of SSRI-induced sexual dysfunction (non-contact penile erections); type: in vivo, rat
Description: The animal model is based on the finding that sexually experienced rats that are administered an SSRI, a drug used to treat certain conditions such as depression, display a reduction in the number of non-contact penile erections. SSRI treatment is associated with sexual dysfunction in human subjects. In general, the animal model exposes sexually experienced male rats (Sprague-Dawley rats) to female rats in estrous in a novel testing arena that is not the regular housing environment. The number of non-contact penile erections is assayed over a specified test period, e.g., 30 minutes (Sukoff, Rizzo, et al., 2006, Society for Neurosci. Abstr. 559.4; U.S. Application Ser. No. 60/682,3379, filed May 19, 2005). In the experiments described herein, animals were generally treated either with 0.9% saline (vehicle) or a drug (i.e., a compound of the invention) in the vehicle.
The ability of fluoxetine, an SSRI associated with sexual dysfunction in humans, to cause sexual dysfunction in the animal model was tested by examining a 10 mg/kg dose of fluoxetine or vehicle alone (0.9% saline), each administered intraperitoneally, once daily for 14 days, on the number of non-contact penile erections over a 30 minute trial period.
To examine the time course of the effects of a drug that causes sexual dysfunction, rats that were handled and tested as described above were treated acutely: rats were treated with vehicle for 6 days, and on the test day (day 7) instead of vehicle, the animals received a single dose of fluoxetine in vehicle (i.p.). For a subchronic (7 day) study, fluoxetine was administered each day for 7 days and the animals were evaluated on test day 7. For the chronic 14 day study, fluoxetine was administered each day for 14 days and the animals were tested on day 14. Each fluoxetine dose was 10 mg/kg in vehicle and was delivered i.p. on each of the test days as described above. The testing session for each section of the study was begun immediately following compound administration and the behavior observed for 30 minutes immediately following the drug administration. […]

sexual function (number of non-contact penile erections over 30 minutes) ([1]; 10 mg/kg i.p. once daily for 14 days (chronic), vs vehicle, listed as Fluoxetine): decrease in sexual function
Compound: CNCCC(Oc1ccc(C(F)(F)F)cc1)c1ccccc1 (stereo not shown) [fluoxetine]
frontal cortex serotonin levels (male Sprague-Dawley rats): did not increase serotonin levels | sexual function (number of non-contact penile erections over 30 minutes) ([1]; 10 mg/kg i.p. each day for 7 days (sub-chronic)): significant increase in sexual dysfunction | sexual function (number of non-contact penile erections over 30 minutes) ([1]; 10 mg/kg i.p. once daily for 14 days (chronic), vs vehicle): significant increase in sexual dysfunction
